Consider 1 molecule from publication PMC8253976, “Extracellular loops of the serotonin transporter act as a selectivity filter for drug binding” (The Journal of Biological Chemistry, 2021).

For orientation: koff means a measure of how fast the partners let go of each other. A word on the kon: it is the second-order rate constant of association.

Test [1] concerns the target T1, SERT (Homo sapiens, UniProt P31645). Briefly: Electrophysiological measurement of methylphenidate binding kinetics to SERT (peak current inhibition and recovery). The format is cell-based. On the set-up: expressed in transfected cells. Particulars: for koff: peak current recovery after washout, read-out: dissociation rate koff from SERT; for association rate constant kon for binding to SERT / kon: y-intercept constrained to koff; for kon: read-out: association rate constant kon for binding to SERT. The method, then: Accordingly, we explored the hypothesis that restricting the flexibility of extracellular loops may increase the affinity of methylphenidate. […] We therefore resorted to an electrophysiological approach, which relies on the substrate-induced peak current through SERT for determining the occupancy of the binding site by methylphenidate. […] The recordings were done in the presence of high internal Na^+ (152 mM) because a high internal Na^+ concentration eliminates the steady-state current component ([5]). The isolated peak current can be quantified with high precision ([5]). The association rate of methylphenidate in the absence (Fig. 9A) and presence (Fig. 9B) of 15B8 Fab was measured by applying 5-HT (30 μM) for 3 s to obtain the reference current. Cells were subsequently exposed to methylphenidate for time intervals varying between 0.2, 0.5, 1, 2, 5, and 10 s prior to eliciting a current by fresh superfusion with 5-HT. This allowed for monitoring the onset of the methylphenidate-induced inhibition of the peak current.
Peak currents were isolated (i.e., the steady-state current was suppressed) by a high concentration of Na^+ (152 mM) in the internal solution in the patch pipet. Shown is the compilation of representative peak current traces from a single cell. […] The dashed lines were drawn by fitting the decline in peak current amplitude to an equation for a monoexponential decay to a residual activity. C and D, the experiments were carried out as outlined in panels A and B with 10, 30, 100, and 300 μM methylphenidate (MPH) in the absence (C) and presence of 300 nM 15B8 Fab 8 (D). The peak current reduction was normalized by dividing test currents by the reference current and plotted as a function of time. Data are means ± SD from three to seven independent recordings for each concentration of methylphenidate. […] Then, the peak currents were elicited by rapid application of 30 μM 5-HT with 0, 0.2, 0.5, 1, 2, 5, and 10 s delay to observe its recovery.

Test [2] concerns the target T1, SERT. The experiment in a line: [^3H]imipramine binding to membranes harboring GFP-tagged SERT. On the set-up: expressed in transfected cells; membrane preparation. Particulars: in the presence of 8B6 scFv, 15B8 Fab, or antiSERT-EL4 antibody; data not shown.

Read-outs that look alike come from different tables or passages of the source.

T1 sequence (P31645 whole entry): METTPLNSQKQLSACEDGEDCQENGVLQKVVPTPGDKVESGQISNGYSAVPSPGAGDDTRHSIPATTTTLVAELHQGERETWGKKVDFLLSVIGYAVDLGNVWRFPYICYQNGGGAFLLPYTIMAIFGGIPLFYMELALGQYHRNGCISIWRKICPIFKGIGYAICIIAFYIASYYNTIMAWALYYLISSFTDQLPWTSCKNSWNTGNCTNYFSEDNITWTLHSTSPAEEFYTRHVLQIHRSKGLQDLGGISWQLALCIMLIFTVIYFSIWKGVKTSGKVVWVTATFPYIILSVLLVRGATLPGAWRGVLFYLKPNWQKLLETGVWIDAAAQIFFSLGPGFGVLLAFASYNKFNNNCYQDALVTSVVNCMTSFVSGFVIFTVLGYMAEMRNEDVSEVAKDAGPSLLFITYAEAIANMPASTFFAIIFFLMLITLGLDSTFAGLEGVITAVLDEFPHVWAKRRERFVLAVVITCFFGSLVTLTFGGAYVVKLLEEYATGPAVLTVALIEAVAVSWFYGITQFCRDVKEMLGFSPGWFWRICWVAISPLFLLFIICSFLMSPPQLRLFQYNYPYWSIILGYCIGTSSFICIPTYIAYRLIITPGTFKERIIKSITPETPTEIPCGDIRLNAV

Take `COC(=O)C(c1ccccc1)C1CCCCN1` (stereo not drawn) [methylphenidate]: the apparent on-rate kapp is 0.36 ± 0.12 s⁻¹ in test [1] (10 μM methylphenidate, absence of 15B8 Fab); 1.20 ± 0.42 s⁻¹ in test [1] (10 μM methylphenidate, presence of 300 nM 15B8 Fab); 0.87 ± 0.20 s⁻¹ in test [1] (30 μM methylphenidate, absence of 15B8 Fab); 1.29 ± 0.27 s⁻¹ in test [1] (30 μM methylphenidate, presence of 300 nM 15B8 Fab); 1.53 ± 0.40 s⁻¹ in test [1] (100 μM methylphenidate, absence of 15B8 Fab); 2.72 ± 0.45 s⁻¹ in test [1] (100 μM methylphenidate, presence of 300 nM 15B8 Fab). The apparent on-rate kapp in test [1] (300 μM methylphenidate, absence of 15B8 Fab) is 3.46 ± 0.51 s⁻¹; in test [1] (300 μM methylphenidate, presence of 300 nM 15B8 Fab), 6.54 ± 1.04 s⁻¹. Further, the koff turned out to be 0.89 ± 0.14 s⁻¹ in test [1] (absence of 15B8 Fab) and 0.8 ± 0.12 s⁻¹ in test [1] (presence of 15B8 Fab (300 nM)). In addition, the “association rate constant kon for binding to SERT” value is reported as 8.55 ± 1.03 × 10^3 M^−1 s^−1 in test [1] (absence of 15B8 Fab) and 1.92 ± 0.06 × 10^4 M^−1 s^−1 in test [1] (presence of 15B8 Fab (300 nM)). The kon in test [1] (absence of 15B8 Fab) turned out to be 8950 ± 1.03e+06 M⁻¹ s⁻¹; in test [1] (presence of 15B8 Fab (300 nM)), 19600 ± 6e+06 M⁻¹ s⁻¹. For the same molecule, in test [2], the “competition curve versus [^3H]imipramine” value is given as “shift to the left”.
